Results reported in ChEMBL document CHEMBL3885861, “Open TG-GATES”.

Organism: Rattus norvegicus
Assay: Open TG-GATES - Regimen: Single
Type: toxicity, organism-based, Sprague-Dawley
Parameters: regimen Single, gender Male, age 6 weeks
Details: in vivo, po, 0 mg/kg, route gavage, dose level Control; for APTT / Bas / Eos / Fbg / Ht / Lym / MCH / MCHC / MCV / Mono / Neu / PT / Plat / RBC / Ret / WBC: tissue Blood; for KIDNEY_L / KIDNEY_R / KIDNEY_TOTAL: tissue Kidney; for LIVER: tissue Liver; for ALP / ALT / AST / BUN / CRE / Ca / Cl / DBIL / GLC / IP / K / LDH / Na / PL / RALB / TBIL / TC / TG / TP / gamma-GTP: tissue Plasma

Cc1cccc(Nc2cc(Cl)nc(SCC(=O)O)n2)c1C [PIRINIXIC ACID]
TERMINAL_BW (3 h): 202.9 g
APTT (3 h): 15.1 s
Bas (3 h): 0%
Eos (3 h): 0.4%
Fbg (3 h): 280 mg/dL
Ht (3 h): 40.2%
Lym (3 h): 77.6%
MCH (3 h): 21.5 pg
MCHC (3 h): 33.9%
MCV (3 h): 63.3 fL
Mono (3 h): 2.6%
Neu (3 h): 18%
PT (3 h): 12.3 s
Plat (3 h): 115.3 x10_4/uL
RBC (3 h): 636.6 x10_4/ul
Ret (3 h): 7.4%
WBC (3 h): 78.3 x10_2/uL
KIDNEY_L (3 h): 0.9 g
KIDNEY_R (3 h): 0.8 g
KIDNEY_TOTAL (3 h): 1.7 g
LIVER (3 h): 8.6 g
ALP (3 h): 1509.2 IU/L
ALT (3 h): 48.6 IU/L
AST (3 h): 77.6 IU/L
BUN (3 h): 11 mg/dL
CRE (3 h): 0.2 mg/dL
Ca (3 h): 10.9 mg/dL
Cl (3 h): 104.8 meq/L
DBIL (3 h): 0.036 mg/dL
GLC (3 h): 183.6 mg/dL
IP (3 h): 10.5 mg/dL
K (3 h): 3.8 meq/L
LDH (3 h): 91.6 IU/L
Na (3 h): 140 meq/L
PL (3 h): 166.4 mg/dL
RALB (3 h): 2.6 g/dL
TBIL (3 h): 0.046 mg/dL
TC (3 h): 82.8 mg/dL
TG (3 h): 121 mg/dL
TP (3 h): 5.6 g/dL
gamma-GTP (3 h): 1.2 IU/L
TERMINAL_BW (6 h): 201.9 g
APTT (6 h): 17.1 s
Bas (6 h): 0%
Eos (6 h): 0.6%
Fbg (6 h): 283.8 mg/dL
Ht (6 h): 40.4%
Lym (6 h): 73.4%
MCH (6 h): 22 pg
MCHC (6 h): 34.3%
MCV (6 h): 64 fL
Mono (6 h): 2.2%
Neu (6 h): 22.8%
PT (6 h): 12.2 s
Plat (6 h): 115 x10_4/uL
RBC (6 h): 630.8 x10_4/ul
Ret (6 h): 7.6%
WBC (6 h): 95.9 x10_2/uL
KIDNEY_L (6 h): 0.8 g
KIDNEY_R (6 h): 0.8 g
KIDNEY_TOTAL (6 h): 1.7 g
LIVER (6 h): 8 g
ALP (6 h): 1969 IU/L
ALT (6 h): 37.8 IU/L
AST (6 h): 74.4 IU/L
BUN (6 h): 10.2 mg/dL
CRE (6 h): 0.2 mg/dL
Ca (6 h): 10.7 mg/dL
Cl (6 h): 106.2 meq/L
DBIL (6 h): 0.026 mg/dL
GLC (6 h): 185.8 mg/dL
IP (6 h): 10.3 mg/dL
K (6 h): 4.1 meq/L
LDH (6 h): 69.2 IU/L
Na (6 h): 139.8 meq/L
PL (6 h): 145 mg/dL
RALB (6 h): 2.5 g/dL
TBIL (6 h): 0.046 mg/dL
TC (6 h): 75.8 mg/dL
TG (6 h): 78 mg/dL
TP (6 h): 5.4 g/dL
gamma-GTP (6 h): 1.2 IU/L
TERMINAL_BW (9 h): 205.2 g
APTT (9 h): 15.9 s
Bas (9 h): 0%
Eos (9 h): 0.8%
Fbg (9 h): 268 mg/dL
Ht (9 h): 39.5%
Lym (9 h): 74.6%
MCH (9 h): 21.3 pg
MCHC (9 h): 34.1%
MCV (9 h): 62.4 fL
Mono (9 h): 2.6%
Neu (9 h): 21.6%
PT (9 h): 12.4 s
Plat (9 h): 117.6 x10_4/uL
RBC (9 h): 632.8 x10_4/ul
Ret (9 h): 7.6%
WBC (9 h): 69.1 x10_2/uL
KIDNEY_L (9 h): 0.9 g
KIDNEY_R (9 h): 0.9 g
KIDNEY_TOTAL (9 h): 1.7 g
LIVER (9 h): 7.9 g
ALP (9 h): 1428 IU/L
ALT (9 h): 34.8 IU/L
AST (9 h): 67.4 IU/L
BUN (9 h): 10.6 mg/dL
CRE (9 h): 0.2 mg/dL
Ca (9 h): 10.6 mg/dL
Cl (9 h): 103.6 meq/L
DBIL (9 h): 0.02 mg/dL
GLC (9 h): 189 mg/dL
IP (9 h): 10.7 mg/dL
K (9 h): 3.6 meq/L
LDH (9 h): 52.8 IU/L
Na (9 h): 140.8 meq/L
PL (9 h): 146 mg/dL
RALB (9 h): 2.5 g/dL
TBIL (9 h): 0.038 mg/dL
TC (9 h): 80.2 mg/dL
TG (9 h): 53.6 mg/dL
TP (9 h): 5.2 g/dL
gamma-GTP (9 h): 1 IU/L
TERMINAL_BW (24 h): 212.4 g
APTT (24 h): 16.5 s
Bas (24 h): 0%
Eos (24 h): 1%
Fbg (24 h): 285.8 mg/dL
Ht (24 h): 38.8%
Lym (24 h): 73.8%
MCH (24 h): 21.6 pg
MCHC (24 h): 34.2%
MCV (24 h): 63.2 fL
Mono (24 h): 3%
Neu (24 h): 21.8%
PT (24 h): 12.2 s
Plat (24 h): 112.5 x10_4/uL
RBC (24 h): 614 x10_4/ul
Ret (24 h): 7.3%
WBC (24 h): 80.5 x10_2/uL
KIDNEY_L (24 h): 0.9 g
KIDNEY_R (24 h): 0.9 g
KIDNEY_TOTAL (24 h): 1.9 g
LIVER (24 h): 9.7 g
ALP (24 h): 1823.2 IU/L
ALT (24 h): 42.8 IU/L
AST (24 h): 71.4 IU/L
BUN (24 h): 14.8 mg/dL
CRE (24 h): 0.2 mg/dL
Ca (24 h): 11 mg/dL
Cl (24 h): 104.6 meq/L
DBIL (24 h): 0.02 mg/dL
GLC (24 h): 179.8 mg/dL
IP (24 h): 8.4 mg/dL
K (24 h): 4 meq/L
LDH (24 h): 61 IU/L
Na (24 h): 142.6 meq/L
PL (24 h): 147 mg/dL
RALB (24 h): 2.6 g/dL
TBIL (24 h): 0.032 mg/dL
TC (24 h): 79.8 mg/dL
TG (24 h): 71.6 mg/dL
TP (24 h): 5.5 g/dL
